Results taken from patent publication US20230085307A1, “PYRIDAZINONE COMPOUND AND HERBICIDE” (NISSAN CHEMICAL CORPORATION, priority 2019, published 2023).

system: blackgrass; assay: Test Example 5: herbicidal effect by foliage application, plastic box (Table 20, symbol J); type: in vivo, blackgrass (Alopecurus myosuroides); settings: foliage application, AAH 320 g/ha, three weeks after application
Outline: (§1)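 Plants were sown into sterilized diluvial soil under about 1.5 cm cover and kept in a greenhouse at 25° C. to 30° C. Fourteen days on, foliage received an even spray of the diluted emulsion. Herbicidal or crop effect was judged three weeks afterwards.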

SMILES | J: blackgrass, herbicidal effect
CCCC(=O)Oc1c(C)nn(C)c(=O)c1-c1c(-c2ccc(C(C)C)cc2)sc2ccccc12 [1-126] | 0 (Herbicidal rate of 5% or less (almost no effect))
Cc1nn(C)c(=O)c(-c2c(-c3ccc(OCc4ccccc4)cc3)sc3ccccc23)c1O [1-133] | 1 (Herbicidal rate of 5% or more and less than 20%)
Cc1nn(C)c(=O)c(-c2c(-c3ccc(OCC4CC4(F)F)cc3)sc3ccccc23)c1O (stereo not drawn) [1-138] | 5 (Herbicidal rate of 90% or more (almost completely withered))

system: green foxtail; assay: Test Example 5: herbicidal effect by foliage application, plastic box (Table 20, symbol G); type: in vivo, green foxtail (Setaria viridis); settings: foliage application, AAH 320 g/ha, three weeks after application
Outline: as §1

SMILES | G: green foxtail, herbicidal effect
CCCC(=O)Oc1c(C)nn(C)c(=O)c1-c1c(-c2ccc(C(C)C)cc2)sc2ccccc12 [1-126] | 2 (Herbicidal rate of 20% or more and less than 40%)
Cc1nn(C)c(=O)c(-c2c(-c3ccc(OCc4ccccc4)cc3)sc3ccccc23)c1O [1-133] | 5 (Herbicidal rate of 90% or more (almost completely withered))
Cc1nn(C)c(=O)c(-c2c(-c3ccc(OCC4CC4(F)F)cc3)sc3ccccc23)c1O (stereo not drawn) [1-138] | 3 (Herbicidal rate of 40% or more and less than 70%)

system: late watergrass; assay: Test Example 1: herbicidal activity, application before weed generation under submerged conditions (Table 16, symbol A); type: in vivo, late watergrass (Echinochloa oryzicola); settings: 320 g/ha applied herbicide
Outline: (§2)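 Alluvial soil was flooded to 4 cm depth, weed seeds were sown mixed and 2.5-leaf rice seedlings were transplanted. On sowing day, the compound's emulsion, diluted in water to a set dose, was applied to the water surface. Plants grew at 25–30 °C and were scored 0–5 after three weeks.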

SMILES | Herbicidal effect on A: late watergrass (grade 0-5)
CCCC(=O)Oc1c(C)nn(C)c(=O)c1-c1c(-c2ccc(C(C)C)cc2)sc2ccccc12 [1-126] | 3 (Herbicidal rate of 40% or more and less than 70%)
Cc1nn(C)c(=O)c(-c2c(-c3ccc(OCc4ccccc4)cc3)sc3ccccc23)c1O [1-133] | 5 (Herbicidal rate of 90% or more (almost completely withered))
Cc1nn(C)c(=O)c(-c2c(-c3ccc(OCC4CC4(F)F)cc3)sc3ccccc23)c1O (stereo not drawn) [1-138] | 3 (Herbicidal rate of 40% or more and less than 70%)

system: windgrass; assay: Test Example 4: herbicidal effect by soil treatment (Table 19, symbol L); type: in vivo, windgrass (Apera spica-venti); settings: AAH 320 g/ha
Outline: (§3)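 Pre-emergence style soil spray: seeds under ~1.5 cm sterilized diluvial soil received a uniform coat of emulsion diluted to the predetermined herbicide amount. Greenhouse 25–30° C; readout at week three on previously defined criteria.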

SMILES | L: windgrass, herbicidal effect rating
CCCC(=O)Oc1c(C)nn(C)c(=O)c1-c1c(-c2ccc(C(C)C)cc2)sc2ccccc12 [1-126] | 0 (Herbicidal rate of 5% or less (almost no effect))
Cc1nn(C)c(=O)c(-c2c(-c3ccc(OCc4ccccc4)cc3)sc3ccccc23)c1O [1-133] | 0 (Herbicidal rate of 5% or less (almost no effect))
Cc1nn(C)c(=O)c(-c2c(-c3ccc(OCC4CC4(F)F)cc3)sc3ccccc23)c1O (stereo not drawn) [1-138] | 0 (Herbicidal rate of 5% or less (almost no effect))

system: barnyard grass; assay: Test Example 5: herbicidal effect by foliage application, plastic box (Table 20, symbol H); type: in vivo, barnyard grass (Echinochloa crus-galli); settings: foliage application, AAH 320 g/ha, three weeks after application
Outline: as §1

SMILES | H: barnyard grass, herbicidal effect
CCCC(=O)Oc1c(C)nn(C)c(=O)c1-c1c(-c2ccc(C(C)C)cc2)sc2ccccc12 [1-126] | 4 (Herbicidal rate of 70% or more and less than 90%)
Cc1nn(C)c(=O)c(-c2c(-c3ccc(OCc4ccccc4)cc3)sc3ccccc23)c1O [1-133] | 5 (Herbicidal rate of 90% or more (almost completely withered))
Cc1nn(C)c(=O)c(-c2c(-c3ccc(OCC4CC4(F)F)cc3)sc3ccccc23)c1O (stereo not drawn) [1-138] | 5 (Herbicidal rate of 90% or more (almost completely withered))

system: redroot pigweed; assay: Test Example 4: herbicidal effect by soil treatment (Table 19, symbol N); type: in vivo, redroot pigweed (Amaranthus retroflexus); settings: AAH 320 g/ha
Outline: as §3

SMILES | N: redroot pigweed, herbicidal effect rating
CCCC(=O)Oc1c(C)nn(C)c(=O)c1-c1c(-c2ccc(C(C)C)cc2)sc2ccccc12 [1-126] | 3 (Herbicidal rate of 40% or more and less than 70%)
Cc1nn(C)c(=O)c(-c2c(-c3ccc(OCc4ccccc4)cc3)sc3ccccc23)c1O [1-133] | 5 (Herbicidal rate of 90% or more (almost completely withered))
Cc1nn(C)c(=O)c(-c2c(-c3ccc(OCC4CC4(F)F)cc3)sc3ccccc23)c1O (stereo not drawn) [1-138] | 5 (Herbicidal rate of 90% or more (almost completely withered))

system: oval-leafed pondweed; assay: Test Example 2: herbicidal activity, application during weed generation under submerged conditions (Table 17, symbol C); type: in vivo, oval-leafed pondweed (Monochoria vaginalis); settings: AAH 320 g/ha; application during weed generation, submerged conditions
Outline: (§4)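 Steps: fill Wagner pots with alluvial soil; add water to give 4 cm depth; sow the species mixed; grow under glass at 25–30° C.; at 1–2 leaves apply water-diluted emulsion formulation to the water surface at a fixed herbicide amount; score after 3 weeks.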

SMILES | herbicidal effect rating, C: oval-leafed pondweed
CCCC(=O)Oc1c(C)nn(C)c(=O)c1-c1c(-c2ccc(C(C)C)cc2)sc2ccccc12 [1-126] | 1 (Herbicidal rate of 5% or more and less than 20%)
Cc1nn(C)c(=O)c(-c2c(-c3ccc(OCc4ccccc4)cc3)sc3ccccc23)c1O [1-133] | 3 (Herbicidal rate of 40% or more and less than 70%)
Cc1nn(C)c(=O)c(-c2c(-c3ccc(OCC4CC4(F)F)cc3)sc3ccccc23)c1O (stereo not drawn) [1-138] | 0 (Herbicidal rate of 5% or less (almost no effect))

system: wild oat; assay: Test Example 5: herbicidal effect by foliage application, plastic box (Table 20, symbol I); type: in vivo, wild oat (Avena fatua); settings: foliage application, AAH 320 g/ha, three weeks after application
Outline: as §1

SMILES | I: wild oat, herbicidal effect
CCCC(=O)Oc1c(C)nn(C)c(=O)c1-c1c(-c2ccc(C(C)C)cc2)sc2ccccc12 [1-126] | 2 (Herbicidal rate of 20% or more and less than 40%)
Cc1nn(C)c(=O)c(-c2c(-c3ccc(OCc4ccccc4)cc3)sc3ccccc23)c1O [1-133] | 0 (Herbicidal rate of 5% or less (almost no effect))
Cc1nn(C)c(=O)c(-c2c(-c3ccc(OCC4CC4(F)F)cc3)sc3ccccc23)c1O (stereo not drawn) [1-138] | 0 (Herbicidal rate of 5% or less (almost no effect))

system: barnyard grass; assay: Test Example 3: herbicidal effect by foliage application, Wagner pot (Table 18, symbol H); type: in vivo, barnyard grass (Echinochloa crus-galli); settings: 320 g/ha
Outline: (§5)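 Plants were sown in alluvial soil held under 0.1–0.5 cm standing water and grown 14 days in a greenhouse at 25–30 °C. An emulsifiable formulation, water-diluted to the set dose, was then sprayed onto the foliage, and effects were scored three weeks later using previously defined criteria.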

SMILES | herbicidal effect on H (barnyard grass), rating 0-5
CCCC(=O)Oc1c(C)nn(C)c(=O)c1-c1c(-c2ccc(C(C)C)cc2)sc2ccccc12 [1-126] | 5 (Herbicidal rate of 90% or more (almost completely withered))
Cc1nn(C)c(=O)c(-c2c(-c3ccc(OCc4ccccc4)cc3)sc3ccccc23)c1O [1-133] | 5 (Herbicidal rate of 90% or more (almost completely withered))
Cc1nn(C)c(=O)c(-c2c(-c3ccc(OCC4CC4(F)F)cc3)sc3ccccc23)c1O (stereo not drawn) [1-138] | 5 (Herbicidal rate of 90% or more (almost completely withered))

system: late watergrass; assay: Test Example 2: herbicidal activity, application during weed generation under submerged conditions (Table 17, symbol A); type: in vivo, late watergrass (Echinochloa oryzicola); settings: AAH 320 g/ha; application during weed generation, submerged conditions
Outline: as §4

SMILES | herbicidal effect rating, A: late watergrass
CCCC(=O)Oc1c(C)nn(C)c(=O)c1-c1c(-c2ccc(C(C)C)cc2)sc2ccccc12 [1-126] | 2 (Herbicidal rate of 20% or more and less than 40%)
Cc1nn(C)c(=O)c(-c2c(-c3ccc(OCc4ccccc4)cc3)sc3ccccc23)c1O [1-133] | 1 (Herbicidal rate of 5% or more and less than 20%)
Cc1nn(C)c(=O)c(-c2c(-c3ccc(OCC4CC4(F)F)cc3)sc3ccccc23)c1O (stereo not drawn) [1-138] | 0 (Herbicidal rate of 5% or less (almost no effect))

system: southern crabgrass; assay: Test Example 5: herbicidal effect by foliage application, plastic box (Table 20, symbol F); type: in vivo, southern crabgrass (Digitaria ciliaris); settings: foliage application, AAH 320 g/ha, three weeks after application
Outline: as §1

SMILES | F: southern crabgrass, herbicidal effect
CCCC(=O)Oc1c(C)nn(C)c(=O)c1-c1c(-c2ccc(C(C)C)cc2)sc2ccccc12 [1-126] | 1 (Herbicidal rate of 5% or more and less than 20%)
Cc1nn(C)c(=O)c(-c2c(-c3ccc(OCc4ccccc4)cc3)sc3ccccc23)c1O [1-133] | 3 (Herbicidal rate of 40% or more and less than 70%)
Cc1nn(C)c(=O)c(-c2c(-c3ccc(OCC4CC4(F)F)cc3)sc3ccccc23)c1O (stereo not drawn) [1-138] | 0 (Herbicidal rate of 5% or less (almost no effect))

system: Chinese sprangletop; assay: Test Example 3: herbicidal effect by foliage application, Wagner pot (Table 18, symbol D); type: in vivo, chinese sprangletop (Leptochloa chinensis); settings: 320 g/ha
Outline: as §5

SMILES | herbicidal effect on D (Chinese sprangletop), rating 0-5
CCCC(=O)Oc1c(C)nn(C)c(=O)c1-c1c(-c2ccc(C(C)C)cc2)sc2ccccc12 [1-126] | 5 (Herbicidal rate of 90% or more (almost completely withered))
Cc1nn(C)c(=O)c(-c2c(-c3ccc(OCc4ccccc4)cc3)sc3ccccc23)c1O [1-133] | 3 (Herbicidal rate of 40% or more and less than 70%)
Cc1nn(C)c(=O)c(-c2c(-c3ccc(OCC4CC4(F)F)cc3)sc3ccccc23)c1O (stereo not drawn) [1-138] | 3 (Herbicidal rate of 40% or more and less than 70%)

system: Italian ryegrass; assay: Test Example 4: herbicidal effect by soil treatment (Table 19, symbol K); type: in vivo, Italian ryegrass (Lolium multiflorum); settings: AAH 320 g/ha
Outline: as §3

SMILES | K: Italian ryegrass, herbicidal effect rating
CCCC(=O)Oc1c(C)nn(C)c(=O)c1-c1c(-c2ccc(C(C)C)cc2)sc2ccccc12 [1-126] | 3 (Herbicidal rate of 40% or more and less than 70%)
Cc1nn(C)c(=O)c(-c2c(-c3ccc(OCc4ccccc4)cc3)sc3ccccc23)c1O [1-133] | 0 (Herbicidal rate of 5% or less (almost no effect))
Cc1nn(C)c(=O)c(-c2c(-c3ccc(OCC4CC4(F)F)cc3)sc3ccccc23)c1O (stereo not drawn) [1-138] | 5 (Herbicidal rate of 90% or more (almost completely withered))

system: Japanese bulrush; assay: Test Example 1: herbicidal activity, application before weed generation under submerged conditions (Table 16, symbol B); type: in vivo, Japanese bulrush (Schoenoplectus juncoides); settings: 320 g/ha applied herbicide
Outline: as §2

SMILES | Herbicidal effect on B: Japanese bulrush (grade 0-5)
CCCC(=O)Oc1c(C)nn(C)c(=O)c1-c1c(-c2ccc(C(C)C)cc2)sc2ccccc12 [1-126] | 3 (Herbicidal rate of 40% or more and less than 70%)
Cc1nn(C)c(=O)c(-c2c(-c3ccc(OCc4ccccc4)cc3)sc3ccccc23)c1O [1-133] | 5 (Herbicidal rate of 90% or more (almost completely withered))
Cc1nn(C)c(=O)c(-c2c(-c3ccc(OCC4CC4(F)F)cc3)sc3ccccc23)c1O (stereo not drawn) [1-138] | 3 (Herbicidal rate of 40% or more and less than 70%)

system: persian speedwell; assay: Test Example 5: herbicidal effect by foliage application, plastic box (Table 20, symbol R); type: in vivo, Persian speedwell (Veronica persica); settings: foliage application, AAH 320 g/ha, three weeks after application
Outline: as §1

SMILES | R: persian speedwell, herbicidal effect
CCCC(=O)Oc1c(C)nn(C)c(=O)c1-c1c(-c2ccc(C(C)C)cc2)sc2ccccc12 [1-126] | 4 (Herbicidal rate of 70% or more and less than 90%)
Cc1nn(C)c(=O)c(-c2c(-c3ccc(OCc4ccccc4)cc3)sc3ccccc23)c1O [1-133] | 5 (Herbicidal rate of 90% or more (almost completely withered))
Cc1nn(C)c(=O)c(-c2c(-c3ccc(OCC4CC4(F)F)cc3)sc3ccccc23)c1O (stereo not drawn) [1-138] | 5 (Herbicidal rate of 90% or more (almost completely withered))

system: rice flat sedge; assay: Test Example 3: herbicidal effect by foliage application, Wagner pot (Table 18, symbol E); type: in vivo, rice flat sedge (Cyperus iria); settings: 320 g/ha
Outline: as §5

SMILES | herbicidal effect on E (rice flat sedge), rating 0-5
CCCC(=O)Oc1c(C)nn(C)c(=O)c1-c1c(-c2ccc(C(C)C)cc2)sc2ccccc12 [1-126] | 4 (Herbicidal rate of 70% or more and less than 90%)
Cc1nn(C)c(=O)c(-c2c(-c3ccc(OCc4ccccc4)cc3)sc3ccccc23)c1O [1-133] | 5 (Herbicidal rate of 90% or more (almost completely withered))
Cc1nn(C)c(=O)c(-c2c(-c3ccc(OCC4CC4(F)F)cc3)sc3ccccc23)c1O (stereo not drawn) [1-138] | 5 (Herbicidal rate of 90% or more (almost completely withered))
